We go through 3 compounds from US20220016251A1, “LYMPHATIC MEDIATED TRANSPORT-BASED TRIGLYCERIDE PRODRUG, AND PREPARATION METHOD THEREFOR” (SHENYANG PHARMACEUTICAL UNIVERSITY, priority 2019, published 2022).

In general, AUC(0-t) refers to exposure summed from dosing to a finite time, without extrapolation to infinity. A high value points to high exposure. Broadly, the Cmax is the peak of the concentration-time curve. Usually Tmax stands for the time at which the peak concentration occurs. As a reminder, the half-life is the time in which the quantity being followed falls by half. High values mean slow loss, low ones fast loss. In general, IC50 refers to the concentration at which inhibition is half-maximal.

≈ marks a conversion by molar mass, not a printed value. Read-outs that look alike come from different tables or passages of the source.

Data set [1] can be described thus: in vivo. The procedure:
Taking SD rats as a model, a docetaxel-triglyceride prodrug emulsion and a docetaxel solution are orally administered; a plasma concentration of a parent drug is measured; and a drug-time curve is drawn and corresponding pharmacokinetic parameters are calculated respectively based on the measured concentration (Table 2). In order to calculate the absolute bioavailability, a docetaxel solution is administered intravenously, and the content of docetaxel in the plasma is measured.
In addition, in order to investigate whether the docetaxel-triglyceride prodrug is transported through the lymphatics, one hour before oral administration of the DTX-S-S-TG and the docetaxel solution, […] is administered intraperitoneally to inhibit the release of chylomicrons. The effect of lymphatic transport on the absorption of the prodrug is investigated.

The nature of data set [2]: Stability in lipoprotein lipase-containing plasma. The conditions noted are these: plasma added with lipoprotein lipase, after continuous incubation. The class given is in vitro ADME. The procedure: (§1) Emulsions prepared in Example 5 are incubated in simulated gastric juice, bile-pancreatic juice simulated intestinal juice, and lipoprotein lipase-containing plasma at 37° C., respectively; and samples are taken at predetermined time points to investigate the physical stability of the prodrug emulsion and the chemical stability of the prodrug in different media.

Data set [3] relates to 4T1 tumor. The class given is in vivo. The conditions noted are these: oral, 4T1 tumor-bearing Balb/c mice. The source says: It reminds us that a good pharmacodynamic result not only requires a significant pharmacokinetic result, but also that a specific release at a tumor site is very important.
The subject of data set [4] is pancreatic lipase. The experiment in a line: Digestion in bile-pancreatic juice simulated intestinal juice. Particulars: 37° C. The class given is in vitro ADME. Here is the method: as §1
Data set [5] can be described thus: In vivo intestinal perfusion in rats. From the text: The intestinal permeability of a docetaxel-triglyceride prodrug is investigated by in vivo intestinal perfusion in rats. […] In order to investigate the effect of intestinal pancreatic lipase digestion on the absorption of the prodrug, a pancreatic lipase inhibitor orlistat is administrated half an hour in advance.

For data set [6] the following is noted: mouse, in vivo.
From the text: For 5 consecutive days, normal Balb/c mice are orally administered with the docetaxel-triglyceride prodrug emulsion synthesized in Example 4, and docetaxel solution, and intravenously injected with a docetaxel solution, and a normal saline group is used as control. The gastrointestinal toxicity is then investigated.
Data set [7] has as its system 4T1 cells. The experiment in a line: cells. The class given is cell-based. Particulars: Mus musculus. From the text:
(§2) In order to investigate the tumor reduction-sensitive release of DTX-S-S-TG, 4T1 cells and KB cells are used as models to investigate the cytotoxicity of DTX-5C-TG, a DTX-S-S-TG emulsion and a docetaxel solution. […] Due to a reduction-sensitive dithio linking bridge, DTX-S-S-TG has higher drug release efficiency than DTX-5C-TG, which is linked by insensitive ester bonds. As a result, the cytotoxicity of DTX-S-S-TG is stronger than that of DTX-5C-TG. Meanwhile, due to the slow release of a sensitive prodrug, DTX-S-S-TG has lower cytotoxicity than the docetaxel solution.

The subject of data set [8] is KB cells. Put plainly: cells. In kind it is cell-based. The conditions noted are these: Homo sapiens.
From the text: as §2

Regarding “Docetaxel-C5(Et)-Triglyceride Prodrug [DTX-5C(Et)-TG]”, in data set [1] (rat, in vivo, po), the “oral bioavailability improved versus docetaxel” value is on record as 1.05-4.71 times. The “release of docetaxel parent drug in plasma” value in data set [2] is “release the drug slowly”. Moreover, the anti-tumor effect entry in data set [3] is “certain anti-tumor effect”. For the same compound, the “degradation into docetaxel-monoglyceride prodrugs in intestinal juice” value in data set [4] was “relatively slow degradation rate”.

Take `CC(=O)O[C@@]12CO[C@@H]1C[C@H](O)[C@@]1(C)C(=O)[C@H](O)C3=C(C)[C@@H](OC(=O)[C@H](O)[C@@H](NC(=O)OC(C)(C)C)c4ccccc4)C[C@@](O)([C@@H](OC(=O)c4ccccc4)[C@H]21)C3(C)C` [DTX Solution, docetaxel]: the Fabs in data set [1] (SD, rat, in vivo) came to 9.4%. Besides, in data set [1] (SD, rat, in vivo, po), the AUC(0-t) was 168 ± 125 ng·h/mL, the highest concentration (Cmax) was 21 ± 6.8 ng/mL, the Frel amounted to 100% and the Tmax came out at 0.4 ± 0.5 h. The compound further had a half-life in data set [1] (SD, rat, in vivo, po) of 11.8 ± 8.4 h. Moreover, the “effect of cyclophosphamide (lymphatic suppression) on oral absorption / AUC” value in data set [1] (rat, in vivo) was “no significant difference in AUC”. Besides, the “effect of pancreatic lipase inhibitor orlistat on absorption” value in data set [5] (rat, in vivo) is “no significant effect”. Further, the “gastrointestinal toxicity (injury to intestinal segments)” value in data set [6] (iv) was “injury to respective intestinal segments”. Besides, the “gastrointestinal toxicity (injury to intestinal segments)” value in data set [6] (po) is on record as “slight injury to the jejunum”. In data set [3], the anti-tumor effect entry was “almost no anti-tumor effect”. Also, in data set [7] (48 h, read-out: IC50 4T1 48 h), the IC50 was determined as 16.6 ng/mL (≈ 20.5 nM). For the same compound, in data set [7] (72 h, read-out: IC50 4T1 72 h), the IC50 was determined as 5.9 ng/mL (≈ 7.3 nM). Also, the IC50 in data set [8] (48 h, read-out: IC50 KB 48 h) was 4.9 ng/mL (≈ 6.07 nM). In data set [8] (72 h, read-out: IC50 KB 72 h), the IC50 was determined as 1.3 ng/mL (≈ 1.61 nM).

As to `CCCCCCCCCCCCCCCC(=O)OCC(COC(=O)CCCCCCCCCCCCCCC)OC(=O)C(CCC(=O)O[C@@H](C(=O)O[C@H]1C[C@@]2(O)[C@@H](OC(=O)c3ccccc3)[C@@H]3[C@]4(OC(C)=O)CO[C@@H]4C[C@H](O)[C@@]3(C)C(=O)[C@H](O)C(=C1C)C2(C)C)[C@@H](NC(=O)OC(C)(C)C)c1ccccc1)OC(=O)C(C)(C)C` (some centres unmarked) [DTX-5C(Piv)-TG, Docetaxel-C5(Piv)-Triglyceride Prodrug], in data set [1] (oral, SD rats), the blood concentration result is on record as “lower than a detection limit”. The “release of docetaxel parent drug in plasma” value in data set [2] is on record as “hardly releases the docetaxel parent drug”. In addition, the “permeability coefficient Ka, increase compared with docetaxel solution” value in data set [5] (in vivo intestinal perfusion in rats) is reported as 1.15 times. Further, in data set [4], the “degradation into docetaxel-monoglyceride prodrugs in intestinal juice” value is reported as “relatively slow degradation rate”.
